Laboratory results: ChEMBL document CHEMBL6092191, “Advancing Cancer Immunotherapy through Engineering New PD-L1 Degraders: A Comprehensive Study from Small Molecules to PD-L1-Specific Peptide-Drug Conjugates” (J Med Chem, 2024)
Activity calls are given as the source filed them. The rule behind the calls is not given here.

Experiments:
[1] = target: COP9 signalosome complex subunit 5 (Homo sapiens) (UniProt Q92905); assay: Induction of PD-L1 degradation in human NCI-H460 cells at 10 uM incubated for 2 days by Western blot analysis; assay type: cell-based; settings: time 2.0 day
HEK-293T = assay: Antiproliferative activity against HEK293T cells at 10 uM incubated for 4 days; assay type: toxicity, cell-based; settings: human, 96 h, time 4 day
3T3-L1 = assay: Antiproliferative activity against mouse 3T3-L1 cells at 10 uM incubated for 4 days; assay type: toxicity, cell-based; settings: 3t3-l1, 96 h, time 4 day
[2] = Antiproliferative activity against human HTori-3 cells at 10 uM incubated for 4 days; assay type: toxicity, cell-based; settings: htori-3, 96 h, time 4 day
[3] = Drug uptake in human PC-9 cells at 10 uM by fluorescence microscopy; assay type: ADME, cell-based; settings: pc-9, 10 µM
[4] = target: COP9 signalosome complex subunit 5 (Homo sapiens) (UniProt Q92905); assay: Induction of PD-L1 degradation in human NCI-H460 cells at 10 uM incubated for 24 hrs by Western blot analysis; assay type: cell-based
[5] = tested on: Lewis lung carcinoma cell line; assay: Antitumor activity against Lewis lung carcinoma cells xenografted in C57BL/6 mouse model at 24.5 mg/kg, ip administered daily for 8 days relative to control; assay type: functional; settings: 192 h, time 8 day, read-out: TGI
[6] = tested on: Lewis lung carcinoma cell line; assay: Antitumor T-cell immune response in Lewis lung carcinoma cells xenografted in C57BL/6 mouse model assessed as increase in ratio of CD8+ to CD4+ T cells in tumor at 24.5 mg/kg, ip administered daily for 8 days by flow cytometry; assay type: functional, organism-based; settings: time 8.0 day
[7] = tested on: Lewis lung carcinoma cell line; assay: Anticancer activity against Lewis lung carcinoma cells xenografted in C57BL/6 mouse model assessed as tumor growth inhibition at 10 mg/kg, ip administered daily for 10 days; assay type: functional, organism-based; settings: time 10.0 day
[8] = tested on: Lewis lung carcinoma cell line; assay: Anticancer activity against Lewis lung carcinoma cells xenografted in C57BL/6 mouse model at 10 mg/kg, ip administered daily for 10 days relative to control; assay type: functional; settings: 240 h, time 10 day, read-out: TGI
[9] = tested on: Lewis lung carcinoma cell line; assay: Antitumor T-cell immune response in Lewis lung carcinoma cells xenografted in C57BL/6 mouse model assessed as decrease in CD3+ CD4+ population in CD45+ T cells in tumor at 10 mg/kg, ip administered daily for 10 days by flow cytometry; assay type: functional, organism-based; settings: time 10.0 day
[10] = tested on: Lewis lung carcinoma cell line; assay: Antitumor T-cell immune response in Lewis lung carcinoma cells xenografted in C57BL/6 mouse model assessed as increase in CD3+ CD8+ infiltration in CD45+ T cells in tumor at 10 mg/kg, ip administered daily for 10 days by flow cytometry; assay type: functional, organism-based; settings: time 10.0 day
[11] = tested on: Lewis lung carcinoma cell line; assay: Antitumor T-cell immune response in Lewis lung carcinoma cells xenografted in C57BL/6 mouse model assessed as increase in ratio of CD8+ to CD4+ T cells in tumor at 10 mg/kg, ip administered daily for 10 days by flow cytometry; assay type: functional, organism-based; settings: time 10.0 day
[12] = tested on: Lewis lung carcinoma cell line; assay: Antitumor T-cell immune response in Lewis lung carcinoma cells xenografted in C57BL/6 mouse model assessed as increase in IFN-gamma level in tumor at 10 mg/kg, ip administered daily for 10 days by ELISA; assay type: functional, organism-based; settings: time 10.0 day
[13] = tested on: Lewis lung carcinoma cell line; assay: Antitumor T-cell immune response in Lewis lung carcinoma cells xenografted in C57BL/6 mouse model assessed as increase in TNF-alpha level in tumor at 10 mg/kg, ip administered daily for 10 days by ELISA; assay type: functional, organism-based; settings: time 10.0 day
[14] = tested on: Lewis lung carcinoma cell line; assay: Antitumor T-cell immune response in Lewis lung carcinoma cells xenografted in C57BL/6 mouse model assessed as increase in GrB level in tumor at 10 mg/kg, ip administered daily for 10 days by ELISA; assay type: functional, organism-based; settings: time 10.0 day
[15] = Toxicity in C57BL/6 mouse model xenografted with […] cells assessed as body weight loss at 10 mg/kg, ip administered daily for 10 days; assay type: organism-based; settings: in vivo, 240 h, time 10 day
[16] = Toxicity in C57BL/6 mouse model xenografted with […] cells assessed as obvious damage in heart at 10 mg/kg, ip administered daily for 10 days by H and E staining based analysis; assay type: organism-based; settings: in vivo, 240 h, time 10 day
[17] = Toxicity in C57BL/6 mouse model xenografted with […] cells assessed as obvious damage in liver at 10 mg/kg, ip administered daily for 10 days by H and E staining based analysis; assay type: organism-based; settings: in vivo, 240 h, time 10 day
[18] = Toxicity in C57BL/6 mouse model xenografted with […] cells assessed as obvious damage in lung at 10 mg/kg, ip administered daily for 10 days by H and E staining based analysis; assay type: organism-based; settings: in vivo, 240 h, time 10 day
[19] = Toxicity in C57BL/6 mouse model xenografted with […] cells assessed as obvious damage in spleen at 10 mg/kg, ip administered daily for 10 days by H and E staining based analysis; assay type: organism-based; settings: in vivo, 240 h, time 10 day
[20] = Toxicity in C57BL/6 mouse model xenografted with […] cells assessed as obvious damage in kidney at 10 mg/kg, ip administered daily for 10 days by H and E staining based analysis; assay type: organism-based; settings: in vivo, 240 h, time 10 day
[21] = Toxicity in C57BL/6 mouse model xenografted with […] cells assessed as change in ALT level at 10 mg/kg, ip administered daily for 10 days; assay type: organism-based, Blood; settings: in vivo, 240 h, time 10 day
[22] = Toxicity in C57BL/6 mouse model xenografted with […] cells assessed as change in AST level at 10 mg/kg, ip administered daily for 10 days; assay type: organism-based, Blood; settings: in vivo, 240 h, time 10 day
[23] = Toxicity in C57BL/6 mouse model xenografted with […] cells assessed as change in serum creatinine level at 10 mg/kg, ip administered daily for 10 days; assay type: organism-based; settings: in vivo, 240 h, time 10 day
[24] = Toxicity in C57BL/6 mouse model xenografted with […] cells assessed as change in BUN level at 10 mg/kg, ip administered daily for 10 days; assay type: organism-based, Blood; settings: in vivo, 240 h, time 10 day
Mus musculus = assay: Biodistribution in C57BL/6 mouse model bearing […] lung carcinoma cells assessed as increase in fluorescence signal in tumor at 2 mg/kg, iv measured 4 hrs post-injection by IVIS analysis; assay type: ADME, organism-based; settings: in vivo
[25] = target: COP9 signalosome complex subunit 5 (Homo sapiens) (UniProt Q92905); assay: Induction of PD-L1 degradation in human NCI-H460 cells at 10 uM by Western blot analysis; assay type: cell-based; settings: time <= 36.0 hrs

Chain of COP9 signalosome complex subunit 5 (Homo sapiens) (Q92905 2-334 limits assumed, one chain of several): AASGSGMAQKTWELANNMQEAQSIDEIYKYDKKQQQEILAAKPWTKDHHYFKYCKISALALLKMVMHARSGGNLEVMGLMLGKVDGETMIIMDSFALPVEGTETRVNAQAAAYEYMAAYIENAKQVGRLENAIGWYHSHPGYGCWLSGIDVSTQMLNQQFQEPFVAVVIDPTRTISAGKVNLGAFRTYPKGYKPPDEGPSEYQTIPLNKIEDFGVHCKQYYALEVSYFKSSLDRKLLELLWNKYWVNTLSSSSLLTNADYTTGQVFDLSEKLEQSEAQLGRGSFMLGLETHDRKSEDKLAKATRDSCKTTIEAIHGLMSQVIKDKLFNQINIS

SMILES: COc1cc2c(cc1OC)-c1cc3ccc(OC)c(OCCNC(=O)OCc4ccc(SSC[C@H](N)C(=O)NCCCCCC(=O)N[C@@H](CC(N)=O)C(=O)N[C@@H](Cc5ccc(O)cc5)C(=O)N[C@@H](CO)C(=O)N[C@@H](CCCCN)C(=O)N5CCC[C@H]5C(=O)N[C@H](C(=O)N[C@@H](CC(=O)O)C(=O)N[C@@H](CCCNC(=N)N)C(=O)N[C@@H](CCC(N)=O)C(=O)N[C@@H](Cc5ccc(O)cc5)C(=O)N[C@@H](Cc5cnc[nH]5)C(=O)N[C@@H](Cc5ccccc5)C(=O)O)[C@@H](C)O)cc4)c3c[n+]1CC2.[Cl-]
- Activity [1]: Active
- Activity (HEK-293T): Toxic
- Activity (3T3-L1): Toxic
- Activity [2]: Toxic

SMILES: COc1ccc2cc3[n+](cc2c1OCCOCCOCCN)CCc1cc2c(cc1-3)OCO2.[Cl-]
- Drug uptake [3]: Time-dependent-effect
- Activity [4]: Active

SMILES: COc1ccc2cc3[n+](cc2c1OCCN)CCc1cc2c(cc1-3)OCO2.[Cl-]
- Drug uptake [3]: Time-dependent-effect
- Activity [4]: inactive

SMILES: COc1ccc2cc3[n+](cc2c1OCCCN)CCc1cc2c(cc1-3)OCO2.[Cl-]
- Drug uptake [3]: Time-dependent-effect
- Activity [4]: Active

SMILES: COc1ccc2cc3[n+](cc2c1OC)CCc1cc2c(cc1-3)OCO2.[Cl-] [BERBERINE CHLORIDE]
- Drug uptake [3]: Time-dependent-effect
- Activity [4]: Active

SMILES: COc1cc2c(cc1OC)-c1cc3ccc(OC)c(OCCOCCOCCN)c3c[n+]1CC2.[Cl-]
- Drug uptake [3]: Time-dependent-effect
- Activity [4]: Active

SMILES: C[C@@H](O)[C@H](NC(=O)[C@@H]1CCCN1C(=O)[C@H](CCCCN)NC(=O)[C@H](CO)NC(=O)[C@H](Cc1ccc(O)cc1)NC(=O)[C@H](CC(N)=O)NC(=O)CCCCCNC(=O)[C@@H](N)CS)C(=O)N[C@@H](CC(=O)O)C(=O)N[C@@H](CCCNC(=N)N)C(=O)N[C@@H](CCC(N)=O)C(=O)N[C@@H](Cc1ccc(O)cc1)C(=O)N[C@@H](Cc1cnc[nH]1)C(=O)N[C@@H](Cc1ccccc1)C(=O)O
- Activity [1]: inactive
- Activity (HEK-293T): Non-toxic
- Activity (3T3-L1): Non-toxic
- Activity [2]: Non-toxic
- inhibition in vivo at 24.5 mg/kg [5]: 37%
- Activity [6]: Active

SMILES: COc1cc2c(cc1OC)-c1cc3ccc(OC)c(OCCCCCN)c3c[n+]1CC2.[Cl-]
- Drug uptake [3]: Time-dependent-effect
- Activity [4]: Active
- Activity [7]: Active
- inhibition in vivo at 10 mg/kg [8]: 68%
- Activity [9]: Active
- Activity [10]: Active
- Activity [11]: Active
- Activity [12]: Active
- Activity [13]: Active
- Activity [14]: Active
- Activity [15]: Non-toxic
- Activity [16]: Non-toxic
- Activity [17]: Non-toxic
- Activity [18]: Non-toxic
- Activity [19]: Non-toxic
- Activity [20]: Non-toxic
- Activity [21]: Non-toxic
- Activity [22]: Non-toxic
- Activity [23]: Non-toxic
- Activity [24]: Non-toxic

SMILES: COc1cc2c(cc1OC)-c1cc3ccc(OC)c(OC)c3c[n+]1CC2.[Cl-] [PALMATINE CHLORIDE]
- Drug uptake [3]: Time-dependent-effect
- Activity [4]: Active
- Activity [7]: Active; Highest Efficacy Of Tumor Growth Suppression Among Pmt Derivatives
- Activity [9]: Active
- Activity [10]: Active
- Activity [11]: Active
- Activity [12]: Active
- Activity [13]: Active
- Activity [14]: Active
- Activity [15]: Non-toxic
- Activity [16]: Non-toxic
- Activity [17]: Non-toxic
- Activity [18]: Non-toxic
- Activity [19]: Non-toxic
- Activity [20]: Non-toxic
- Activity [21]: Non-toxic
- Activity [22]: Non-toxic
- Activity [23]: Non-toxic
- Activity [24]: Non-toxic

SMILES: CCN1/C(=C/C=C/C=C/C2=[N+](CCCCCC(=O)NCCN3C(=O)CC(SC[C@H](N)C(=O)NCCCCCC(=O)N[C@@H](CC(N)=O)C(=O)N[C@@H](Cc4ccc(O)cc4)C(=O)N[C@@H](CO)C(=O)N[C@@H](CCCCN)C(=O)N4CCC[C@H]4C(=O)N[C@H](C(=O)N[C@@H](CC(=O)O)C(=O)N[C@@H](CCCNC(=N)N)C(=O)N[C@@H](CCC(N)=O)C(=O)N[C@@H](Cc4ccc(O)cc4)C(=O)N[C@@H](Cc4cnc[nH]4)C(=O)N[C@@H](Cc4ccccc4)C(=O)O)[C@@H](C)O)C3=O)c3ccc(S(=O)(=O)O)cc3C2(C)C)C(C)(C)c2cc(S(=O)(=O)O)ccc21 (stereo partly drawn)
- Drug uptake (Mus musculus): Active

SMILES: COc1ccc2cc3[n+](cc2c1OCCCCCN)CCc1cc2c(cc1-3)OCO2.[Cl-]
- Drug uptake [3]: Time-dependent-effect
- Activity [4]: Active

SMILES: COc1cc2c(cc1OC)-c1cc3ccc(OC)c(OCCCN)c3c[n+]1CC2.[Cl-]
- Drug uptake [3]: Time-dependent-effect
- Activity [4]: Active
- Activity [7]: Active
- inhibition in vivo at 10 mg/kg [8]: 65%
- Activity [9]: Active
- Activity [10]: Active
- Activity [11]: Active
- Activity [12]: Active
- Activity [13]: Active
- Activity [14]: Active
- Activity [15]: Non-toxic
- Activity [16]: Non-toxic
- Activity [17]: Non-toxic
- Activity [18]: Non-toxic
- Activity [19]: Non-toxic
- Activity [20]: Non-toxic
- Activity [21]: Non-toxic
- Activity [22]: Non-toxic
- Activity [23]: Non-toxic
- Activity [24]: Non-toxic

SMILES: COc1cc2c(cc1OC)-c1cc3ccc(OC)c(OCCNC(=O)CCCC[C@@H]4SC[C@@H]5NC(=O)N[C@@H]54)c3c[n+]1CC2
- Activity [25]: Active
